Values of other authors in patent US20050158775A1, “Novel plamid DNA comprising reoprter gene DNA and use of the same” (priority 1997, published 2005).

System: PPAR γ
Conditions: at a concentration of 10 μM or less; cited from earlier work

CCCCC[C@H](O)/C=C/[C@@H]1[C@H]2C/C(=C/CCCC(=O)O)C[C@H]2C[C@H]1O [carbacyclin]
PPAR γ agonist activity: does not show PPAR γ agonist activity
